Measurements reported in patent US9399646B2 (Genentech, Inc., priority 2010, dated 2016).

Legend:
[1] = tested on: MCF-7 cells; assay: Breast cancer cell viability assay (CellTiter-Glo, 5 days); type: cell-based; settings: 5 days' compound exposure; for IC50: Homo sapiens, MCF7, 120 h
Outline: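 Eleven-point semilog compound series, final 0.3-0.000003 μM, added to overnight-adhered MCF-7 cells (320/well; RPMI, 10% FBS, 20 mM HEPES) for 5 days. Viability read by CellTiter-Glo luminescence, background from medium without cells subtracted, expressed relative to untreated cells.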

[2] = biological target: T1, ER-α in MCF-7 cells (Homo sapiens, UniProt P03372); assay: Breast cancer cell ER-α in cell western assay (SP1); type: cell-based; parameters: endogenous in cells; host or cells: MCF-7; settings: 4 or 24 hr post compound addition; for Emax: MCF7, SP1 antibody, read-out: ER-α In Cell Western Assay (SP1) Max Response; for DC50: SP1 antibody, read-out: ER-α In Cell Western Assay (SP1) IC50
T1 sequence (P03372 1-595): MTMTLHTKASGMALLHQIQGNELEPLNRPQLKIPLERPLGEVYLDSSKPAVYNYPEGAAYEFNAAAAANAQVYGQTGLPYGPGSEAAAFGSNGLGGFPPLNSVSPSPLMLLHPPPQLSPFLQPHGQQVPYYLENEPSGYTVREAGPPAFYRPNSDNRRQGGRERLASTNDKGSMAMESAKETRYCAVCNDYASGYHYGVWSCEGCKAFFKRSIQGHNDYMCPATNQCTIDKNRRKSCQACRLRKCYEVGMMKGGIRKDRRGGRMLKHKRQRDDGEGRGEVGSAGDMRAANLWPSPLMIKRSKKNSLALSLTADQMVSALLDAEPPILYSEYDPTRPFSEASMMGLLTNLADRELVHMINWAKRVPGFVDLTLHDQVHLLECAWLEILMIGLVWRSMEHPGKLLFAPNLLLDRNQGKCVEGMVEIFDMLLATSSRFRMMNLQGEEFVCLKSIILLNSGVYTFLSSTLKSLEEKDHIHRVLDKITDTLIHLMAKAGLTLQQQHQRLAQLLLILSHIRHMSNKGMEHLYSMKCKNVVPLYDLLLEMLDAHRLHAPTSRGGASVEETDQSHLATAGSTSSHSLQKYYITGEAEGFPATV
Outline: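 Percent remaining ER: SP1 immunofluorescence normalized to DRAQ5 nuclear stain, compared with untreated controls. Treatment lasted 4 or 24 hr across 0.3–0.000003 μM final in MCF-7.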

IC50 [1]	Emax [2]	DC50 [2]	Structure (SMILES)	MCF7 Viability Assay Max Response [1]
≤ 100 nM	≥ 40%	≤ 100 nM	CC/C(=C(/c1ccc(/C=C/C(=O)O)cc1)c1ccc2c(cnn2C(=O)C(C)(C)C)c1)c1ccc(F)cc1Cl [Compound 405, (E)-3-(4-((E)-2-(2-Chloro-4-fluorophenyl)-1-(1-pivaloyl-1H-indazol-5-yl)but-1-en-1-yl)phenyl)acrylic acid]	++ (++ = a single % value ≧ 40%)
≤ 100 nM	≥ 40%	≤ 100 nM	CCOC(=O)n1ncc2cc(/C(=C(\CC)c3ccc(F)cc3Cl)c3ccc(/C=C/C(=O)O)cc3)ccc21 [Compound 406, (E)-3-(4-((E)-2-(2-Chloro-4-fluorophenyl)-1-(1-(ethoxycarbonyl)-1H-indazol-5-yl)but-1-en-1-yl)phenyl)acrylic acid]	++ (++ = a single % value ≧ 40%)
≤ 100 nM	≥ 40%	≤ 100 nM	CC/C(=C(/c1ccc(/C=C/C(=O)NS(C)(=O)=O)cc1)c1ccc2[nH]ncc2c1)c1ccc(F)cc1Cl [Compound 408, (E)-3-(4-((E)-2-(2-Chloro-4-fluorophenyl)-1-(1H-indazol-5-yl)but-1-en-1-yl)phenyl)-N-(methylsulfonyl)acrylamide]	++ (++ = a single % value ≧ 40%)
≤ 100 nM	≥ 40%	≤ 100 nM	CCCS(=O)(=O)NC(=O)/C=C/c1ccc(/C(=C(/CC)c2ccc(F)cc2Cl)c2ccc3[nH]ncc3c2)cc1 [Compound 409, (E)-3-(4-((E)-2-(2-Chloro-4-fluorophenyl)-1-(1H-indazol-5-yl)but-1-en-1-yl)phenyl)-N-(propylsulfonyl)acrylamide]	++ (++ = a single % value ≧ 40%)
≤ 100 nM	≥ 40%	≤ 100 nM	CCCCCS(=O)(=O)NC(=O)/C=C/c1ccc(/C(=C(/CC)c2ccc(F)cc2Cl)c2ccc3[nH]ncc3c2)cc1 [Compound 410, (E)-3-(4-((E)-2-(2-Chloro-4-fluorophenyl)-1-(1H-indazol-5-yl)but-1-en-1-yl)phenyl)-N-(pentylsulfonyl)acrylamide]	++ (++ = a single % value ≧ 40%)
≤ 100 nM	≥ 40%	≤ 100 nM	CNC(=O)/C=C/c1ccc(/C(=C(\c2ccccc2)C2CCC2)c2ccc3c(cnn3C)c2)cc1 [Compound 411, (E)-3-(4-((E)-2-Cyclobutyl-1-(1-methyl-1H-indazol-5-yl)-2-phenylvinyl)phenyl)-N-methylacrylamide]	++ (++ = a single % value ≧ 40%)
≤ 100 nM	≥ 40%	≤ 100 nM	CNC(=O)/C=C/c1ccc(/C(=C(\c2ccccc2)C2CCC2)c2ccc3[nH]ncc3c2)cc1 [Compound 412, (E)-3-(4-((E)-2-Cyclobutyl-1-(1H-indazol-5-yl)-2-phenylvinyl)phenyl)-N-methylacrylamide]	++ (++ = a single % value ≧ 40%)
≤ 100 nM	≥ 40%	≤ 100 nM	O=C(/C=C/c1ccc(/C(=C(\c2ccccc2)C2CCC2)c2ccc3[nH]nc(F)c3c2)cc1)NC1CC1 [Compound 413, (E)-3-(4-((E)-2-Cyclobutyl-1-(3-fluoro-1H-indazol-5-yl)-2-phenylvinyl)phenyl)-N-cyclopropylacrylamide]	++ (++ = a single % value ≧ 40%)
≤ 100 nM	≥ 40%	≤ 100 nM	O=C(/C=C/c1ccc(/C(=C(\c2ccccc2)C2CCC2)c2ccc3[nH]nc(F)c3c2)cc1)NCCO [Compound 414, (E)-3-(4-((E)-2-Cyclobutyl-1-(3-fluoro-1H-indazol-5-yl)-2-phenylvinyl)phenyl)-N-(2-hydroxyethyl)acrylamide]	++ (++ = a single % value ≧ 40%)
